The target in one assay is T1, recombinant full-length human GSK3β (Homo sapiens, UniProt P49841).
T1 construct: recombinant full-length human GSK3β (Upstate); purchased Upstate
T1 sequence (P49841 whole entry): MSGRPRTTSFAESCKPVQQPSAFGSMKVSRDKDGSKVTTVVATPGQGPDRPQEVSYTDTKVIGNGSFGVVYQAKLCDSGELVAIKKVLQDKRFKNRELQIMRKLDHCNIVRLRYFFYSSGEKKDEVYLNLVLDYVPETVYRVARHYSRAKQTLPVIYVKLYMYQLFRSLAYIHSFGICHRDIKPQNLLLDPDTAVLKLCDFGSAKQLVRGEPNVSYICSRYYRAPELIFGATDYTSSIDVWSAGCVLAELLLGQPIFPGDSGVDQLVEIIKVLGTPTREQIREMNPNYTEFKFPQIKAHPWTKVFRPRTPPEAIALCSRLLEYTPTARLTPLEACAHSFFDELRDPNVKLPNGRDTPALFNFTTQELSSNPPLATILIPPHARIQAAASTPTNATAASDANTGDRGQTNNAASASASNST
As to the kind of experiment: cell-free GSK3 kinase assay (KinaseGlo luciferase). It is filed as biochemical. As to conditions: Table 1; 5 μM ATP, 1 hour at 30 degrees Celsius. As for the experimental part:
Proceed to KinaseGlo luciferase reaction.
Following the completion of the kinase reaction an equal volume of KinaseGlo luciferase reagent (Promega) is added and the luminescence read using a luminescence plate reader within 5-10 minutes.
In general terms: Kinase-Glo measures the ATP left after a reaction by luminescence.
Usually IC50 stands for the concentration that gives 50% inhibition. Take `Nc1c(F)c(NCCNc2ccccn2)c2c3c1c(=O)c(C(=O)O)cn3C1(CCCC1)CO2` [Compound 1]: the IC50 was less than 15 nM.

As to `Cc1cc(NCCNc2c(F)c(N)c3c(=O)c(C(=O)O)cn4c3c2OCC42CCCC2)nc2ccccc12` [Compound 2], the IC50 lay in the range of 61 to 150 nM. For the compound `Nc1c(F)c(NCCCn2cncn2)c2c3c1c(=O)c(C(=O)O)cn3C1(CCCC1)CO2` [Compound 3], the IC50 is 61 to 150 nM. `Nc1c(F)c(NCCCc2ccc(F)cc2)c2c3c1c(=O)c(C(=O)O)cn3C1(CCCC1)CO2` [Compound 4]: the IC50 was less than 15 nM. Regarding `Nc1c(F)c(NCCCN2CCCc3ccccc32)c2c3c1c(=O)c(C(=O)O)cn3C1(CCCC1)CO2` [Compound 5], the IC50 was 16 to 60 nM. The same measure, in the same setting: in the case of `CC(CCc1ccc(Cl)cc1)Nc1c(F)c(N)c2c(=O)c(C(=O)O)cn3c2c1OCC31CCCC1` (centres unmarked) [Compound 6] it was 16 to 60 nM. `Nc1c(F)c(NCCCNC(=O)c2ccco2)c2c3c1c(=O)c(C(=O)O)cn3C1(CCCC1)CO2` [Compound 7]: the IC50 lay within 16 to 60 nM. As to `Nc1c(F)c(NCCCNC(=O)C23CC4CC(CC(C4)C2)C3)c2c3c1c(=O)c(C(=O)O)cn3C1(CCCC1)CO2` [Compound 8], the IC50 is 16 to 60 nM.

Turning to `Nc1c(F)c(NCCOc2ccc(F)cc2)c2c3c1c(=O)c(C(=O)O)cn3C1(CCCC1)CO2` [Compound 9], the IC50 was in the range of 16 to 60 nM. On the same count and under the same terms, in the case of `Cc1cc(OCCNc2c(F)c(N)c3c(=O)c(C(=O)O)cn4c3c2OCC42CCCC2)ccc1Cl` [Compound 10] it was 16 to 60 nM.

On to `Nc1c(F)c(NCCSc2c[nH]c3ccccc23)c2c3c1c(=O)c(C(=O)O)cn3C1(CCCC1)CO2` [Compound 11], for which the IC50 was less than 15 nM. Take `Nc1c(F)c(NCCOc2ccc(Cl)cc2)c2c3c1c(=O)c(C(=O)O)cn3C1(CCCC1)CO2` [Compound 12]: the IC50 fell in the range of 61 to 150 nM.

Regarding `Nc1c(F)c(NCCOc2ccc(Cl)cc2Cl)c2c3c1c(=O)c(C(=O)O)cn3C1(CCCC1)CO2` [Compound 13], the IC50 was 61 to 150 nM. Turning to `COc1ccc(OCCNc2c(F)c(N)c3c(=O)c(C(=O)O)cn4c3c2OCC42CCCC2)cc1OC` [Compound 14], the IC50 was less than 15 nM. The same measure, in the same setting: next, `Cc1ccc2nc(C)cc(NCCNc3c(F)c(N)c4c(=O)c(C(=O)O)cn5c4c3OCC53CCCC3)c2c1` [Compound 15]: less than 15 nM; `Cc1nnc(SCCNc2c(F)c(N)c3c(=O)c(C(=O)O)cn4c3c2OCC42CCCC2)[nH]1` [Compound 16]: less than 15 nM. Still for that read-out and setting: in the case of `Nc1c(F)c(NCCOc2ccc(C3CCCCC3)cc2)c2c3c1c(=O)c(C(=O)O)cn3C1(CCCC1)CO2` [Compound 17] it was more than 150 nM; in that of `Cn1ccnc1SCCNc1c(F)c(N)c2c(=O)c(C(=O)O)cn3c2c1OCC31CCCC1` [Compound 18], less than 15 nM. The same measure, in the same setting: next, `Nc1c(F)c(NCCS(=O)(=O)N2CCCCC2)c2c3c1c(=O)c(C(=O)O)cn3C1(CCCC1)CO2` [Compound 19]: 61 to 150 nM; `Nc1c(F)c(NCCNC2=NS(=O)(=O)c3ccccc32)c2c3c1c(=O)c(C(=O)O)cn3C1(CCCC1)CO2` [Compound 20]: less than 15 nM. Turning to `Nc1c(F)c(NCCSc2nnnn2-c2ccccc2)c2c3c1c(=O)c(C(=O)O)cn3C1(CCCC1)CO2` [Compound 21], the IC50 was less than 15 nM. Same read-out and setting: next, `Nc1c(F)c(NCC(O)Cn2cnc3ccccc32)c2c3c1c(=O)c(C(=O)O)cn3C1(CCCC1)CO2` (centres unmarked) [Compound 22]: 61 to 150 nM. On the same count and under the same terms, in the case of `CCN(CCCNc1c(F)c(N)c2c(=O)c(C(=O)O)cn3c2c1OCC31CCCC1)c1ccccc1` [Compound 23] it was less than 15 nM; in that of `Nc1c(F)c(NCCN2CCc3ccccc32)c2c3c1c(=O)c(C(=O)O)cn3C1(CCCC1)CO2` [Compound 24], 61 to 150 nM; in that of `Cc1ccc(OCCNc2c(F)c(N)c3c(=O)c(C(=O)O)cn4c3c2OCC42CCCC2)cc1` [Compound 25], 16 to 60 nM. Take `Nc1c(F)c(NCCCc2ccccn2)c2c3c1c(=O)c(C(=O)O)cn3C1(CCCC1)CO2` [Compound 26]: the IC50 is less than 15 nM. On the same count and under the same terms, in the case of `Nc1c(F)c(NCCCc2ccccc2Cl)c2c3c1c(=O)c(C(=O)O)cn3C1(CCCC1)CO2` [Compound 27] it was less than 15 nM; in that of `COc1ccc(CCCNc2c(F)c(N)c3c(=O)c(C(=O)O)cn4c3c2OCC42CCCC2)cc1` [Compound 28], less than 15 nM.

Consider `CCOc1ccc(CCCNc2c(F)c(N)c3c(=O)c(C(=O)O)cn4c3c2OCC42CCCC2)cc1OCC` [Compound 29], for which the IC50 is 16 to 60 nM. For `Cc1cc(NCCNc2c(F)c(N)c3c(=O)c(C(=O)O)cn4c3c2OCC42CCCC2)c2ccccc2n1` [Compound 30], the IC50 is less than 15 nM. With `CC(CCc1ccccc1Cl)Nc1c(F)c(N)c2c(=O)c(C(=O)O)cn3c2c1OCC31CCCC1` (centres unmarked) [Compound 31], the IC50 fell in the range of 16 to 60 nM. Same read-out and setting: in the case of `Cc1nn(C)c(C)c1CCCNc1c(F)c(N)c2c(=O)c(C(=O)O)cn3c2c1OCC31CCCC1` [Compound 32] it was less than 15 nM; in that of `COc1ccc(OCCNc2c(F)c(N)c3c(=O)c(C(=O)O)cn4c3c2OCC42CCCC2)cc1` [Compound 34], 61 to 150 nM. The same measure, in the same setting: next, `Nc1c(F)c(NCCCc2ccccn2)c2c3c1c(=O)c(-c1nnn[nH]1)cn3C1(CCCC1)CO2` [Compound 35]: 16 to 60 nM; `N#Cc1cn2c3c(c(NCCCc4ccccn4)c(F)c(N)c3c1=O)OCC21CCCC1` [Compound 36]: less than 15 nM. The same measure, in the same setting: in the case of `N#Cc1cn2c3c(c(NCCCn4ccnc4)c(F)c(N)c3c1=O)OCC21CCCC1` [Compound 37] it was less than 15 nM; in that of `Cc1nn(C)c(C)c1CCCNc1c(F)c(N)c2c(=O)c(C#N)cn3c2c1OCC31CCCC1` [Compound 38], less than 15 nM; in that of `COc1ccc(C(CCNc2c(F)c(N)c3c(=O)c(C(=O)O)cn4c3c2OCC42CCCC2)c2ccc(F)cc2)cc1` (centres unmarked) [Compound 39], less than 15 nM. Consider `Nc1c(F)c(NCCCc2ccc(Cl)cc2)c2c3c1c(=O)c(C(=O)O)cn3C1(CCCC1)CO2` [Compound 40], for which the IC50 is more than 150 nM. For `Cc1cc(C)n(CCCNc2c(F)c(N)c3c(=O)c(C(=O)O)cn4c3c2OCC42CCCC2)n1` [Compound 41], the IC50 fell in the range of 16 to 60 nM. The same measure, in the same setting: in the case of `Cc1[nH]ncc1CCCNc1c(F)c(N)c2c(=O)c(C(=O)O)cn3c2c1OCC31CCCC1` [Compound 42] it was less than 15 nM. On the same count and under the same terms, next, `N=C(NO)c1cn2c3c(c(NCCCn4ccnc4)c(F)c(N)c3c1=O)OCC21CCCC1` [Compound 43]: 61 to 150 nM; `Nc1c(F)c(NCCNc2ccccn2)c2c3c1c(=O)c(C(=O)O)cn3C1(CCC1)CO2` [Compound 44]: 16 to 60 nM. Regarding `Nc1c(F)c(NCCNc2ccccn2)c2c3c1c(=O)c(C(=O)O)cn3CC1(CCC1)O2` [Compound 45], the IC50 lay in the range of 61 to 150 nM. As for `Nc1c(F)c(NCCNc2ccccn2)c2c3c1c(=O)c(C(=O)O)cn3C1(CCO2)CC1` [Compound 46], the IC50 lay in the range of 16 to 60 nM. Turning to `Nc1c(F)c(NCCNc2ccccn2)c2c3c1c(=O)c(C(=O)O)cn3C1(CCC1)CCO2` [Compound 47], the IC50 was 16 to 60 nM.

Take `Nc1c(F)c(NCCNc2ccccn2)c2c3c1c(=O)c(C(=O)O)cn3C1(CCCC1)CCO2` [Compound 48]: the IC50 is more than 150 nM.

With `CC1COc2c(NCCNc3ccccn3)c(F)c(N)c3c(=O)c(C(=O)O)cn(c23)C12CCC2` (centres unmarked) [Compound 49], the concentration for half-maximal inhibition (IC50) was less than 15 nM. Consider `CC1CC2(CCC2)n2cc(C(=O)O)c(=O)c3c(N)c(F)c(NCCNc4ccccn4)c(c32)O1` (centres unmarked) [Compound 50], for which the half-inhibitory concentration (IC50) was more than 150 nM. As to `Nc1c(F)c(NCCNc2ccccn2)c2c3c1c(=O)c(C(=O)O)cn3CC1(CCC1)CO2` [Compound 51], the IC50 is 61 to 150 nM. On the same count and under the same terms, in the case of `Nc1c(F)c(NCCNc2ccccn2)c2c3c1c(=O)c(C(=O)O)cn3CC1(CC1)CO2` [Compound 52] it was more than 150 nM; in that of `Nc1c(F)c(NCCNc2ccccn2)c2c3c1c(=O)c(C(=O)O)cn3C1(CCC1)CCN2` [Compound 53], 16 to 60 nM. Regarding `COc1ccc(CNc2c(F)c(N)c3c(=O)c(C(=O)O)cn4c3c2OCCC42CCC2)cc1` [Compound 55], the IC50 is 61 to 150 nM. With `Nc1c(F)c(NCCCc2ccccn2)c2c3c1c(=O)c(C(=O)O)cn3C1(CCC1)CCO2` [Compound 56], the IC50 was less than 15 nM. `CCN(CCCNc1c(F)c(N)c2c(=O)c(C(=O)O)cn3c2c1OCCC31CCC1)c1ccccc1` [Compound 57]: the IC50 was 16 to 60 nM. Turning to `Nc1c(F)c(NCCNC(=O)c2ccccn2)c2c3c1c(=O)c(C(=O)O)cn3C1(CCC1)CCO2` [Compound 58], the half-maximal inhibitory concentration (IC50) lay within 16 to 60 nM. On the same count and under the same terms, in the case of `Nc1c(F)c(NCCCc2ccc(F)cc2)c2c3c1c(=O)c(C(=O)O)cn3C1(CCC1)CCO2` [Compound 59] it was less than 15 nM; in that of `Nc1c(F)c(NCCCn2ccnc2)c2c3c1c(=O)c(C(=O)O)cn3C1(CCC1)CCO2` [Compound 60], less than 15 nM; in that of `Nc1nc(NCCNc2c(F)c(N)c3c(=O)c(C(=O)O)cn4c3c2OCCC42CCC2)ccc1[N+](=O)[O-]` [Compound 61], 61 to 150 nM.

For `Nc1c(F)c(NC2CCN(c3ccccn3)C2)c2c3c1c(=O)c(C(=O)O)cn3C1(CCC1)CCO2` (centres unmarked) [Compound 62], the IC50 was more than 150 nM. As to `Nc1c(F)c(N[C@H]2C[C@H]2Cc2ccccn2)c2c3c1c(=O)c(C(=O)O)cn3C1(CCCC1)CO2` [Compound 63], the IC50 is more than 150 nM. As for `Nc1c(F)c(N[C@@H]2C[C@H]2Cc2ccccn2)c2c3c1c(=O)c(C(=O)O)cn3C1(CCCC1)CO2` [Compound 64], the IC50 was in the range of 16 to 60 nM. As for `Nc1c(F)c(NCCCc2ccccc2)c2c3c1c(=O)c(C(=O)O)cn3C1(CCCC1)CO2` [Compound 65], the IC50 was less than 15 nM.

For the compound `Nc1c(F)c(NCCOc2ccccc2)c2c3c1c(=O)c(C(=O)O)cn3C1(CCCC1)CO2` [Compound 66], the IC50 was more than 150 nM.

The same assay, now with this note: Table 2; 5 μM ATP, 1 hour at 30 degrees Celsius.
In the case of `N#Cc1cn2c3c(c(NCCCc4ccccn4)c(F)c(N)c3c1=O)OCC21CC1`, the 50% inhibitory concentration (IC50) was less than 15 nM. Turning to `N#Cc1cn2c3c(c(NCCCc4cccnc4)c(F)c(N)c3c1=O)OCC21CC1`, the IC50 was less than 15 nM. On the same count and under the same terms, in the case of `N#Cc1cn2c3c(c(NCCCn4cccn4)c(F)c(N)c3c1=O)OCC21CC1` it was less than 15 nM; in that of `N#Cc1cn2c3c(c(NCCCc4ccncc4)c(F)c(N)c3c1=O)OCC21CCCC1`, less than 15 nM.

The record behind these values is patent US8476261B2, “Spirocyclic aminoquinolones as GSK-3 inhibitors” (Kyorin Pharmaceutical Co., Ltd., priority 2007, dated 2013).
